Results from ChEMBL document CHEMBL2062364, “Discovery and optimization of new benzimidazole- and benzoxazole-pyrimidone selective PI3Kβ inhibitors for the treatment of phosphatase and TENsin homologue (PTEN)-deficient cancers” (J Med Chem, 2012).

Legend:
[1] = Plasma concentration in SCID mouse xenografted with PTEN-deficient human PC3 cells at 300 mg/kg, po BID measured after 3 hrs; assay type: ADME, organism-based, PC-3; design: dose 300 mg/kg, route oral
[2] = Plasma concentration in SCID mouse xenografted with PTEN-deficient human PC3 cells at 300 mg/kg, po BID measured after 24 hrs; assay type: ADME, organism-based, PC-3; design: dose 300 mg/kg, route oral
Nucleic Acid = test: Ratio of drug uptake in plasma to tumor of SCID mouse xenografted with PTEN-deficient human PC3 cells at 300 mg/kg, po BID measured after 0.5 to 24 hrs; assay type: ADME, organism-based, PC-3; design: dose 300 mg/kg, route oral; conditions: in vivo
Mus musculus [3] = test: Inhibition of Akt phosphorylation at T308 residue in SCID mouse bearing human PTEN-deficient PC3 cells at 300 mg/kg, po BID measured after 6 hrs; assay type: functional; conditions: PC-3, 6 h
Plasma [4] = test: Plasma concentration in SCID mouse xenografted with PTEN-deficient human PC3 cells at 300 mg/kg, po BID measured after day 1; assay type: ADME, organism-based, PC-3; design: dose 300 mg/kg, route oral; conditions: in vivo
Plasma [5] = test: Plasma concentration in SCID mouse xenografted with PTEN-deficient human PC3 cells at 300 mg/kg, po BID measured after day 4; assay type: ADME, organism-based, PC-3; design: dose 300 mg/kg, route oral; conditions: in vivo
PC-3 = test: Antitumor activity against PTEN-deficient human PC3 cells xenografted in SCID mouse assessed as tumor growth inhibition at 300 mg/kg, po BID for 9 days measured on day 32 relative to control; assay type: functional
Mus musculus [6] = test: Toxicity in SCID mouse bearing PTEN-deficient human PC3 cells at 300 mg/kg, po BID for 9 days; assay type: organism-based, PC-3; design: dose 300 mg/kg, route oral; conditions: in vivo, 216 h
Mus musculus [7] = test: Toxicity in SCID mouse bearing PTEN-deficient human PC3 cells assessed as weight loss at 300 mg/kg, po BID for 9 days; assay type: organism-based, PC-3; design: dose 300 mg/kg, route oral; conditions: in vivo, 216 h
[8] = biological target: T1, Phosphatidylinositol 4,5-bisphosphate 3-kinase catalytic subunit beta isoform (Homo sapiens, UniProt P42338); test: Inhibition of human PI3Kbeta-mediated Akt phosphorylation at Ser473 residue expressed in PTEN-deficient human PC3 cells by chemiluminescence assay; assay type: cell-based, PC-3
T1 sequence (P42338 whole entry, canonical isoform): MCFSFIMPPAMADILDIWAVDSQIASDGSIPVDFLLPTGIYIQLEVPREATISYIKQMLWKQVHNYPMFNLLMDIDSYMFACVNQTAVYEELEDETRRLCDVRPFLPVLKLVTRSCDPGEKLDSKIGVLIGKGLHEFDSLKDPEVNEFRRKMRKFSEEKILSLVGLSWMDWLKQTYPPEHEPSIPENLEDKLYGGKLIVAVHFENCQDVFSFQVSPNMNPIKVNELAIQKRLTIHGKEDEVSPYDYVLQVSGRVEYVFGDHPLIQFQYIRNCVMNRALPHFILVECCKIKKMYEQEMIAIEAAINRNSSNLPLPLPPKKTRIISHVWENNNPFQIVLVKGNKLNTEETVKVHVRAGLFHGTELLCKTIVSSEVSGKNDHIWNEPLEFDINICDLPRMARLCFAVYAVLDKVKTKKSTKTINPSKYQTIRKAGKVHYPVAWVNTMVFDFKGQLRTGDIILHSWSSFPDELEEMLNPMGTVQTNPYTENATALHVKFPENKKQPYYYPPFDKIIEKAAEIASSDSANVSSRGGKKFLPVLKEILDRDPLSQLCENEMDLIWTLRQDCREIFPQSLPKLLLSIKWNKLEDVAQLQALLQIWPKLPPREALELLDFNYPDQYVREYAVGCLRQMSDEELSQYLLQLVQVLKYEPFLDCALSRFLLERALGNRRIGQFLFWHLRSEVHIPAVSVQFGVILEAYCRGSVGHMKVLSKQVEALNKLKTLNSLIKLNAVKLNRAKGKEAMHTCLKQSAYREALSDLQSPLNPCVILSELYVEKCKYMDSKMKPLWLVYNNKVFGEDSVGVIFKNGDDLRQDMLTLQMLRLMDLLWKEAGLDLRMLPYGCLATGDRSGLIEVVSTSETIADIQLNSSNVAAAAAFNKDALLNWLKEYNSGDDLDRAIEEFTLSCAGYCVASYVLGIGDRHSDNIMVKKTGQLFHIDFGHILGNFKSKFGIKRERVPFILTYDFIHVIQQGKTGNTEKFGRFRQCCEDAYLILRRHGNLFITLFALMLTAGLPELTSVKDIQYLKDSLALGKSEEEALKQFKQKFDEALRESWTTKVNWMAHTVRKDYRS

[9] = biological target: T1, Phosphatidylinositol 4,5-bisphosphate 3-kinase catalytic subunit beta isoform; test: Inhibition of N-terminus poly-His tagged human PI3Kbeta expressed in baculovirus infected insect […] cells coexpressing p85alpha using PI(4,5)P2 as substrate preincubated with compound for 15 mins measured after 10 mins by HTRF assay
[10] = biological target: T2, Phosphatidylinositol 4,5-bisphosphate 3-kinase catalytic subunit gamma isoform (Homo sapiens, UniProt P48736); test: Inhibition of N-terminus poly-His tagged human PI3Kgamma expressed in baculovirus infected insect sf9 cells using PI(4,5)P2 as substrate preincubated with compound for 15 mins measured after 10 mins by HTRF assay
T2 sequence (P48736 whole entry, canonical isoform): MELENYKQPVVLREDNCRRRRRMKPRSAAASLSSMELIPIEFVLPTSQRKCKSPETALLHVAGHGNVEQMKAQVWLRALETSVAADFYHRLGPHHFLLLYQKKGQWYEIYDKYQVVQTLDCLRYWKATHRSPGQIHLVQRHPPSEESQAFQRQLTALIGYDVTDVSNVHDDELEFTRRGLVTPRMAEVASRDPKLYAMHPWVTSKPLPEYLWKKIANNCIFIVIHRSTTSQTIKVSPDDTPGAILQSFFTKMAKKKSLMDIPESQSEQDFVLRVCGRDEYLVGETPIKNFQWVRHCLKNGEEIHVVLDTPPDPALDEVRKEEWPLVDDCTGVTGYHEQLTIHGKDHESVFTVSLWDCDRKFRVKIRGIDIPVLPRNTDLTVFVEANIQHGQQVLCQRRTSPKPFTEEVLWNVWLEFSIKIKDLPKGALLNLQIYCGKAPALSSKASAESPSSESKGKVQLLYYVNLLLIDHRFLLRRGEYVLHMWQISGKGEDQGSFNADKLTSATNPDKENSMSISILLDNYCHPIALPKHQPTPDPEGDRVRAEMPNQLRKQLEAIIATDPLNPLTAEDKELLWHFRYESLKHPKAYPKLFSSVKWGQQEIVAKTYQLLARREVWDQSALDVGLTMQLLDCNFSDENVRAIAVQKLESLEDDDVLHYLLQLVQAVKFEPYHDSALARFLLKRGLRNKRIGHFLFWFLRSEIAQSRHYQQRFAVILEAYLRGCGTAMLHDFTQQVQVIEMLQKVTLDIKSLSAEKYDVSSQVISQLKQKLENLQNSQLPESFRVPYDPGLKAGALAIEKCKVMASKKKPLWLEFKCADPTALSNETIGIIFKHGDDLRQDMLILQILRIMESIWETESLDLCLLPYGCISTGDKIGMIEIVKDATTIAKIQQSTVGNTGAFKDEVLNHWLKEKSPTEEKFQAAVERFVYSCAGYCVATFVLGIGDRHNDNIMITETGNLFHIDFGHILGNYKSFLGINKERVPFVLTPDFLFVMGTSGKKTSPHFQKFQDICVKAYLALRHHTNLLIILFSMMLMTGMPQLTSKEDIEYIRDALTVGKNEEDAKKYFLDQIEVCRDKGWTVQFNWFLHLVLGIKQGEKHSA

[11] = biological target: Serine/threonine-protein kinase mTOR (Homo sapiens, UniProt P42345); test: Inhibition of mTOR
[12] = Inhibition of mTORC2-mediated Akt phosphorylation at Ser473 residue in PTEN-deficient human PC3 cells after 2 hrs by Western blot analysis; assay type: cell-based; conditions: PC-3, 2 h
[13] = biological target: T1, Phosphatidylinositol 4,5-bisphosphate 3-kinase catalytic subunit beta isoform; test: Inhibition of human PI3Kbeta-mediated Akt phosphorylation at T308 residue expressed in PTEN-deficient human PC3 cells after 2 hrs by Western blot analysis; assay type: cell-based, PC-3
[14] = Apparent permeability of the compound across human Caco2 cells; assay type: ADME, cell-based; conditions: Caco-2
Cytochrome P450 3A4 = Cytochrome P450 3A4 (Homo sapiens, UniProt P08684); test: Inhibition of human recombinant CPY3A4
Chain of Cytochrome P450 3A4 (P08684 whole entry): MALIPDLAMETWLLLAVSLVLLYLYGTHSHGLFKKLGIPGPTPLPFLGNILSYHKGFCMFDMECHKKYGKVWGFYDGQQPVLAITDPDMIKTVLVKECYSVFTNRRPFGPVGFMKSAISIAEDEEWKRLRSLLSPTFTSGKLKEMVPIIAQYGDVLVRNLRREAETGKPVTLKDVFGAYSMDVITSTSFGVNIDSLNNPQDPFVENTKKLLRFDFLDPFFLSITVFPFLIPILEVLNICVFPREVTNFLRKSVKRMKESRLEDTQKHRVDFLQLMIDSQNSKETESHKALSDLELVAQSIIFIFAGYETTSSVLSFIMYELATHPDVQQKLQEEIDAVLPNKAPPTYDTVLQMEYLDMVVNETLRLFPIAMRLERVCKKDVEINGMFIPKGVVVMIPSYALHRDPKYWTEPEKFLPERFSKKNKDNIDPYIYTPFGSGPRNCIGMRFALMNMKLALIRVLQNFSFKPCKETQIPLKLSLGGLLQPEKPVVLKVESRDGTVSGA

[15] = Drug metabolism in mouse liver microsomes; assay type: ADME, Microsome; conditions: read-out: Drug metabolism
[16] = biological target: Phosphatidylinositol 4,5-bisphosphate 3-kinase catalytic subunit alpha isoform (Homo sapiens, UniProt P42336); test: Inhibition of human PI3Kalpha-mediated Akt phosphorylation at Ser473 residue expressed in human H460 cells after 0.5 to 2 hrs by Western blot analysis; assay type: cell-based
Chain of Phosphatidylinositol 4,5-bisphosphate 3-kinase catalytic subunit alpha isoform (P42336 whole entry, canonical isoform): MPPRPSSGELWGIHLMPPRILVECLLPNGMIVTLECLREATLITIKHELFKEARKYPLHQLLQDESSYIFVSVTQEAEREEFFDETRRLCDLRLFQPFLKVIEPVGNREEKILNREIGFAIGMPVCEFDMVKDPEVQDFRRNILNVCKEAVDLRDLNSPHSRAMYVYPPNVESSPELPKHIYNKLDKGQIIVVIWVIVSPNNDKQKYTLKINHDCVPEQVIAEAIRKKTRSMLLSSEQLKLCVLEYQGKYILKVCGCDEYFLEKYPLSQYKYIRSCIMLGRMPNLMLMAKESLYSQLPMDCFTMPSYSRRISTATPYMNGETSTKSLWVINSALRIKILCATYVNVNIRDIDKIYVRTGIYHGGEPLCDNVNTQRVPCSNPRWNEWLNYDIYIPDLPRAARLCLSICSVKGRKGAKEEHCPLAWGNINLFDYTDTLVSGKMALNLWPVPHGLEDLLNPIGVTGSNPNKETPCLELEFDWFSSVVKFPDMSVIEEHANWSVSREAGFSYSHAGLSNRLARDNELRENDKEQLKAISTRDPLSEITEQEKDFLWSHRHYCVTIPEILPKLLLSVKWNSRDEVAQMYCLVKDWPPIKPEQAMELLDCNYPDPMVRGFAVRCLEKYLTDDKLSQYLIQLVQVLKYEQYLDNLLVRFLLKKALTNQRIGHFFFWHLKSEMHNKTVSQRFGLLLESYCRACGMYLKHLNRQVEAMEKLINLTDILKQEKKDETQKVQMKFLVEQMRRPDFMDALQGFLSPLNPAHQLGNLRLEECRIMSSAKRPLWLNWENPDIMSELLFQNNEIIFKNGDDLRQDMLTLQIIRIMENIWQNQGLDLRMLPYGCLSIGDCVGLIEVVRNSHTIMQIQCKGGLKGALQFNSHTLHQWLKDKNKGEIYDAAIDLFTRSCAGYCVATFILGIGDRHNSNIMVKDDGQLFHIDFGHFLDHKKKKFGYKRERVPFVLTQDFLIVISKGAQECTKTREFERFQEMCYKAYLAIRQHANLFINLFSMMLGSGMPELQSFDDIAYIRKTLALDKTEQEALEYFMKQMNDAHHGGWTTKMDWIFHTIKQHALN

[17] = biological target: T1, Phosphatidylinositol 4,5-bisphosphate 3-kinase catalytic subunit beta isoform; test: Inhibition of human PI3Kbeta-mediated Akt phosphorylation at Ser473 residue expressed in mouse MEF-3T3 cells after 0.5 to 2 hrs by Western blot analysis; assay type: cell-based
[18] = biological target: T2, Phosphatidylinositol 4,5-bisphosphate 3-kinase catalytic subunit gamma isoform; test: Inhibition of human PI3Kgamma-mediated Akt phosphorylation at Ser473 residue expressed in mouse RAW264.7 cells after 0.5 to 2 hrs by Western blot analysis; assay type: cell-based
[19] = C0 in CB17/ICR-Prkdc SCID mouse at 6 mg/kg, iv; assay type: ADME, organism-based; design: dose 6 mg/kg, route intravenous; conditions: in vivo
[20] = AUC (0 to Tlast) in CB17/ICR-Prkdc SCID mouse at 6 mg/kg, iv; assay type: ADME, organism-based; design: dose 6 mg/kg, route intravenous; conditions: plasma
Mus musculus [21] = test: Tlast in CB17/ICR-Prkdc SCID mouse at 6 mg/kg, iv; assay type: ADME, organism-based; design: dose 6 mg/kg, route intravenous; conditions: in vivo
[22] = AUC (0 to 24 hrs) in CB17/ICR-Prkdc SCID mouse at 6 mg/kg, iv; assay type: ADME, organism-based; design: time < 24 hr, dose 6 mg/kg, route intravenous; conditions: plasma
[23] = AUC (0 to infinity) in CB17/ICR-Prkdc SCID mouse at 6 mg/kg, iv; assay type: ADME, organism-based; design: time infinity, dose 6 mg/kg, route intravenous; conditions: plasma
[24] = Terminal half life in CB17/ICR-Prkdc SCID mouse at 6 mg/kg, iv; assay type: ADME, organism-based; design: dose 6 mg/kg, route intravenous; conditions: in vivo, read-out: beta t1/2 (converted)
[25] = Clearance in CB17/ICR-Prkdc SCID mouse at 6 mg/kg, iv; assay type: ADME, organism-based; design: dose 6 mg/kg, route intravenous; conditions: in vivo
[26] = Cmax in CB17/ICR-Prkdc SCID mouse at 10 mg/kg, po; assay type: ADME, organism-based; design: dose 10 mg/kg, route oral; conditions: in vivo
[27] = Tmax in CB17/ICR-Prkdc SCID mouse at 10 mg/kg, po; assay type: ADME, organism-based; design: dose 10 mg/kg, route oral; conditions: in vivo
[28] = AUC (0 to Tlast) in CB17/ICR-Prkdc SCID mouse at 10 mg/kg, po; assay type: ADME, organism-based; design: dose 10 mg/kg, route oral; conditions: plasma
Mus musculus [29] = test: Tlast in CB17/ICR-Prkdc SCID mouse at 10 mg/kg, po; assay type: ADME, organism-based; design: dose 10 mg/kg, route oral; conditions: in vivo
[30] = AUC (0 to 24 hrs) in CB17/ICR-Prkdc SCID mouse at 10 mg/kg, po; assay type: ADME, organism-based; design: time < 24 hr, dose 10 mg/kg, route oral; conditions: plasma
[31] = AUC (0 to infinity) in CB17/ICR-Prkdc SCID mouse at 10 mg/kg, po; assay type: ADME, organism-based; design: time infinity, dose 10 mg/kg, route oral; conditions: plasma
[32] = Terminal half life in CB17/ICR-Prkdc SCID mouse at 10 mg/kg, po; assay type: ADME, organism-based; design: dose 10 mg/kg, route oral; conditions: in vivo, read-out: beta t1/2 (converted)
[33] = Oral bioavailability in CB17/ICR-Prkdc SCID mouse at 10 mg/kg; assay type: ADME, organism-based; conditions: in vivo
Mus musculus [34] = test: Inhibition of Akt phosphorylation at T308 residue in tumor of po dosed SCID mouse bearing human PTEN-deficient PC3 cells administered BID; assay type: functional, organism-based; conditions: PC-3
Mus musculus [35] = test: Inhibition of Akt phosphorylation at T308 residue in plasma of po dosed SCID mouse bearing human PTEN-deficient PC3 cells administered BID; assay type: functional, organism-based; conditions: PC-3, Plasma
[36] = Drug uptake in tumor of SCID mouse xenografted with PTEN-deficient human PC3 cells at 300 mg/kg, po BID measured after 1 hr; assay type: ADME, organism-based, Neoplasm, PC-3; design: dose 300 mg/kg, route oral; conditions: read-out: Drug uptake
[37] = Drug uptake in tumor of SCID mouse xenografted with PTEN-deficient human PC3 cells at 300 mg/kg, po BID measured after 3 hrs; assay type: ADME, organism-based, Neoplasm, PC-3; design: dose 300 mg/kg, route oral; conditions: read-out: Drug uptake
[38] = Drug uptake in tumor of SCID mouse xenografted with PTEN-deficient human PC3 cells at 300 mg/kg, po BID measured after 24 hrs; assay type: ADME, organism-based, Neoplasm, PC-3; design: dose 300 mg/kg, route oral; conditions: read-out: Drug uptake
[39] = Plasma concentration in SCID mouse xenografted with PTEN-deficient human PC3 cells at 300 mg/kg, po BID measured after 0.5 hrs; assay type: ADME, organism-based, PC-3; design: dose 300 mg/kg, route oral

With `Cn1c(Cc2nc(N3CCOCC3)cc(=O)[nH]2)nc2ccccc21` the concentration at 3 h [1] was 8 µM, the concentration at 24 h [2] was 1.7 µM and the Ratio (Nucleic Acid) was 1. For the same molecule, the inhibition in vivo at 300 mg/kg (Mus musculus [3]) was > 50%, the Drug uptake (Plasma [4]) was “Active” and the Drug uptake (Plasma [5]) was “Active”. For the same molecule, the T/C (PC-3) was 45%, the Activity (Mus musculus [6]) was “Non-toxic” and the Activity (Mus musculus [7]) was “Non-toxic”. For the same molecule, the IC50 [8] was 0.076 µM, the IC50 [9] was 0.099 µM and the IC50 [10] was > 10 µM. The IC50 [11] was > 10 µM, the IC50 [12] was 0.076 µM and the IC50 [13] was 0.188 µM. The Papp [14] was 30 nm/s, the IC50 (Cytochrome P450 3A4) was > 40 µM and the metabolised [15] was 13%. For the same molecule, the IC50 [16] was > 10 µM, the IC50 [17] was 0.086 µM and the IC50 [18] was > 10 µM. For the same molecule, the C0 [19] was 4.87 µg/mL, the AUC(0-t) [20] was 1.95 µg·h/mL and the Tlast (Mus musculus [21]) was 24 h. It also gave an AUC(0-t) at 24 h [22] of 1.95 µg·h/mL, an AUC(0-inf) [23] of 1.95 µg·h/mL and a half-life [24] of 4.4 h. For the same molecule, the clearance [25] was 3.1 L/h/kg, the Cmax [26] was 0.641 µg/mL and the Tmax [27] was 0.5 h. The AUC(0-t) [28] was 0.846 µg·h/mL, the Tlast (Mus musculus [29]) was 24 h and the AUC(0-t) at 24 h [30] was 0.846 µg·h/mL. The AUC(0-inf) [31] was 0.85 µg·h/mL, the half-life [32] was 3.9 h and the bioavailability [33] was 26%. It also gave an EC50 (Mus musculus [34]) of 2.1 µM, an EC50 (Mus musculus [35]) of 1.6 µM and a concentration at 1 h [36] of 16 µM. It also gave a concentration at 3 h [37] of 6 µM, a concentration at 24 h [38] of 0.7 µM and a concentration at 0.5 h [39] of 28 µM.
